Measured values from US8022206B2 (OSI Pharmaceuticals, LLC, priority 2008, dated 2011).

What was measured:
MET (human) = MET (human) (Homo sapiens, UniProt P08581); assay: MET (human) AlphaScreen kinase assay, Km of ATP; type: biochemical; details: AlphaScreen, Km of ATP; read-out: Met biochemical IC50
Procedure: (§1) Someone skilled in the art will appreciate that a variety of assay formats may be used to determine the activity of the compounds of this invention. For example, AlphaScreen (Amplified Luminescent Proximity Homogeneous Assay) technology was used with the kinases described below. Assay ATP concentrations for individual kinases are included in the text.
Desired compound is added in a final concentration of 1% DMSO with control being vehicle of DMSO alone. MET is diluted to the optimized concentration (optimized on a lot-by-lot basis) in an enzyme diluent buffer (50 mM Tris pH=7.4, 1% glycerol, 0.03% Brij35, 0.24 mM EGTA, 1 mM DTT, and 0.003% BSA). Enzyme is added to initiate the reaction and incubated for 60 min at RT. In subdued light, appropriate amount of PT66 donor and acceptor beads (diluted 1:260 from manufacturer's provision in a 25 mM Tris HCl (pH=7.5), 400 mM NaCl, 100 mM EDTA, 0.3% BSA buffer) are added to the wells. The plates, incubated for 1 h, are read on an AlphaQuest plate reader

RON (human) = RON (human) (Homo sapiens, UniProt Q04912); assay: RON (human) AlphaScreen kinase assay, Km of ATP; type: biochemical; details: AlphaScreen, Km of ATP; read-out: RON biochemical IC50
Procedure: as §1
Desired compound is added in a final concentration of 1% DMSO with control being vehicle of DMSO alone. […] Enzyme is added to initiate the reaction and incubated for 30 min at RT. In subdued light, appropriate amount of PT66 donor and acceptor beads (diluted 1:260 from manufacturer's provision in a 25 mM Tris HCl (pH=7.5), 200 mM NaCl, 100 mM EDTA, 0.3% BSA buffer) are added to the wells. The plates, incubated for 1 h, are read on an AlphaQuest plate reader.

RON (human), sequence (Q04912 25-1400): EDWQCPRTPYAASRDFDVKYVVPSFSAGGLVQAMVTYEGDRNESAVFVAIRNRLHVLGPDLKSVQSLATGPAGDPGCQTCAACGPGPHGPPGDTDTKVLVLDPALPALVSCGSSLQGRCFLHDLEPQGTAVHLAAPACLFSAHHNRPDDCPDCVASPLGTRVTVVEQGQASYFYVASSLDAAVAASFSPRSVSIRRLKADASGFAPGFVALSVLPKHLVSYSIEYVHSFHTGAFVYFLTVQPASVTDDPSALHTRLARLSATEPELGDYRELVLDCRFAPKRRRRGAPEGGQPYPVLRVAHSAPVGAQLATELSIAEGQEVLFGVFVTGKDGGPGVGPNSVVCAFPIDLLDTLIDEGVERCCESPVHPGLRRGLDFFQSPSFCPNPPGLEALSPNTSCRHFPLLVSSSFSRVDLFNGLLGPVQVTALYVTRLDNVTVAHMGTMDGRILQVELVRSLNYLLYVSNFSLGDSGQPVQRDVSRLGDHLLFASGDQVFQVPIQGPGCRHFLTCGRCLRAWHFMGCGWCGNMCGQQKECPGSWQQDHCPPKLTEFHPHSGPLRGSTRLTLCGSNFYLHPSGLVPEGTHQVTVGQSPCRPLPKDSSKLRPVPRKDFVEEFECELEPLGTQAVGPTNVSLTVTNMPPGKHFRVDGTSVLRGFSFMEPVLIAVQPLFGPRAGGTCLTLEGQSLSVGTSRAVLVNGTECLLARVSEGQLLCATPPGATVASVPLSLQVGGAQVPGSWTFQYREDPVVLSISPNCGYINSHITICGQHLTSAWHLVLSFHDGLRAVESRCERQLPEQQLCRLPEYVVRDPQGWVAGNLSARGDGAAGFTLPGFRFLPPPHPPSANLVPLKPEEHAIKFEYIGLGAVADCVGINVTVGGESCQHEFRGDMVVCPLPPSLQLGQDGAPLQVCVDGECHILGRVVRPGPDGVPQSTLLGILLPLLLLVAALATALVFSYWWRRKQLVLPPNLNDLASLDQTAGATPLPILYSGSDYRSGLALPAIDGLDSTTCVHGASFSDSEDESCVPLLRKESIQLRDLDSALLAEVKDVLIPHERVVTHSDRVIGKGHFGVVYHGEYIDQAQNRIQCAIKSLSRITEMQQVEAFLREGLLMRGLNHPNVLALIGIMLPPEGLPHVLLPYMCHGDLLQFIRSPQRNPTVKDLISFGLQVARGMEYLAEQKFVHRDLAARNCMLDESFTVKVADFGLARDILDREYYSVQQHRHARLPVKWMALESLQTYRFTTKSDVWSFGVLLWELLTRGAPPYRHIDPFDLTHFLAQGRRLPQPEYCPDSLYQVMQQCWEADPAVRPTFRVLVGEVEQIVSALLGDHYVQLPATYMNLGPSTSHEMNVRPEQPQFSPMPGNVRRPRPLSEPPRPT
MET (human), sequence (P08581 25-1390): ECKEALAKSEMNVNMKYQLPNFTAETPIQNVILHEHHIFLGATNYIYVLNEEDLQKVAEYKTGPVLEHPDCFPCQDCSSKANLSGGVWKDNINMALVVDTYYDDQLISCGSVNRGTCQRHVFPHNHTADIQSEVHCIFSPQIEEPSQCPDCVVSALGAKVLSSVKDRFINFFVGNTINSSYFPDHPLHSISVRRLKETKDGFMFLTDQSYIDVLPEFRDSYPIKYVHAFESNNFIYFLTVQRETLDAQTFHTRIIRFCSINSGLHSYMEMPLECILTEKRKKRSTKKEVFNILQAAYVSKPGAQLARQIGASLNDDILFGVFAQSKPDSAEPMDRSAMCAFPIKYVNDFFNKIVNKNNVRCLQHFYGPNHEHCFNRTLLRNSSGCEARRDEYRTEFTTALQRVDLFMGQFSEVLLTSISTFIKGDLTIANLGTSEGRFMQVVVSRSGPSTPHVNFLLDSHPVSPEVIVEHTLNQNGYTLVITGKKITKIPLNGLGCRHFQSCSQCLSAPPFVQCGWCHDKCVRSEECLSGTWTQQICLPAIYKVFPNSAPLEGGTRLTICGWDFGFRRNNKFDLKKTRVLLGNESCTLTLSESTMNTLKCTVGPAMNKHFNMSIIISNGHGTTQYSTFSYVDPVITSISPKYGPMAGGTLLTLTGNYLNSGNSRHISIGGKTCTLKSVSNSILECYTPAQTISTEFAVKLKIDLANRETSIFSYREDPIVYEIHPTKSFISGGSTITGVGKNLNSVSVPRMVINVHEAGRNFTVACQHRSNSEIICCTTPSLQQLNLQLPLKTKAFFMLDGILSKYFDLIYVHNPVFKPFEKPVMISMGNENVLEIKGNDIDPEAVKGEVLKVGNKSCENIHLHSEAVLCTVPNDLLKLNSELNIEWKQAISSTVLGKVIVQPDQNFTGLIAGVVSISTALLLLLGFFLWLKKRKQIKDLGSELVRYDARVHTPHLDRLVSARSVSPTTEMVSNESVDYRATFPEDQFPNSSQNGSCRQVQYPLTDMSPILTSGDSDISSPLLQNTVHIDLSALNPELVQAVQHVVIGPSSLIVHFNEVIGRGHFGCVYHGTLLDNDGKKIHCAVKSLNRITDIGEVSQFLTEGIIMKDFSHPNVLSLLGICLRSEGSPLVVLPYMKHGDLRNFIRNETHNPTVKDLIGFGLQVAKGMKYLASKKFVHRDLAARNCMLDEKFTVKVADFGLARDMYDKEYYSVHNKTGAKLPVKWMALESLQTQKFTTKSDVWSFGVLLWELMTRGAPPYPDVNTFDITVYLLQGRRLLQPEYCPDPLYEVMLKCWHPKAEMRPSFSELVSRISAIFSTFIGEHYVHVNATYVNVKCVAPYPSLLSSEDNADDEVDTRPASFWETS

Row | Structure (SMILES) | IC50 (MET (human)) [nM] | IC50 (RON (human)) [nM]
1 | C[C@@H](Oc1c(N)ncc2c(-c3csc(C(=O)N(C)C)c3)coc12)c1c(Cl)ccc(F)c1Cl [Example 317, 4-{6-Amino-7-[(R)-1-(2,6-dichloro-3-fluorophenyl)ethoxy]furo[3,2-c]pyridin-3-yl}thiophene-2-carboxylic acid Dimethylamide] | 500 to 5000 | 500 to 5000
2 | CNc1ncc2c(C3=CCN(C)CC3)coc2c1O[C@H](C)c1c(Cl)ccc(F)c1Cl [Example 36, [7-[(R)-1-(2,6-Dichloro-3-fluorophenyl)-ethoxy]-3-(1-methyl-1,2,3,6-tetrahydropyridin-4-yl)-furo[3,2-c]pyridin-6-yl]-methylamine] | < 500 | < 500
3 | C[C@@H](Oc1c(N)ncc2c(C(=O)O)coc12)c1c(Cl)ccc(F)c1Cl [Example 176, 6-Amino-7-[(R)-1-(2,6-dichloro-3-fluorophenyl)ethoxy]furo[3,2-c]pyridine-3-carboxylic acid] | 500 to 5000 | 5000 to 20000
4 | C[C@H](Cc1ccccc1)Oc1c(N)ncc2c(-c3cnn(C4CCNCC4)c3)coc12 [Example 415, 7-((R)-1-Methyl-2-phenylethoxy)-3-(1-piperidin-4-yl-1H-pyrazol-4-yl)furo[3,2-c]pyridin-6-ylamine] | 500 to 5000 | 500 to 5000
5 | C[C@@H](Oc1c(N)ncc2c(-c3cnn([C@@H]4CCNC4)c3)coc12)c1c(Cl)ccc(F)c1Cl [Example 162, 7-[(1R)-1-(2,6-dichloro-3-fluorophenyl)ethoxy]-3-{1-[(3R)-pyrrolidin-3-yl]-1H-pyrazol-4-yl}furo[3,2-c]pyridin-6-amine] | < 500 | < 500
6 | C[C@@H](Oc1c(N)ncc2c(-c3ccc(CN4CCCC4)s3)coc12)c1c(Cl)ccc(F)c1Cl [Example 213, 7-[(R)-1-(2,6-Dichloro-3-fluorophenyl)ethoxy]-3-(5-pyrrolidin-1-ylmethylthiophen-2-yl)-furo[3,2-c]pyridin-6-ylamine] | < 500 | < 500
7 | CNC(=O)c1coc2c(O[C@H](C)c3c(Cl)ccc(F)c3Cl)c(N)ncc12 [Example 178, 6-Amino-7-[(R)-1-(2,6-dichloro-3-fluorophenyl)ethoxy]furo[3,2-c]pyridine-3-carboxylic acid methylamide] |  | 500 to 5000
8 | C#CCC(Oc1c(N)ncc2c(-c3cnn(C4CCNCC4)c3)coc12)c1c(Cl)ccc(F)c1Cl (stereo not drawn) [Example 353, 7-[1-(2,6-Dichloro-3-fluorophenyl)but-3-ynyloxy]-3-(1-piperidin-4-yl-1H-pyrazol-4-yl)furo[3,2-c]pyridin-6-ylamine] |  | 500 to 5000
9 | C[C@@H](Oc1c(N)ncc2c(C3=CCN(C(=O)N(C)C)CC3)coc12)c1c(Cl)ccc(F)c1Cl [Example 26, 4-{6-Amino-7-[(R)-1-(2,6-dichloro-3-fluorophenyl)-ethoxy]-furo[3,2-c]pyridin-3-yl}-3,6-dihydro-2H-pyridine-1-carboxylic acid Dimethylamide] |  | 500 to 5000
10 | C=CCC(Oc1c(N)ncc2c(-c3cnn(C4CCNCC4)c3)coc12)c1c(Cl)ccc(F)c1Cl (stereo not drawn) [Example 358, 7-[1-(2,6-Dichloro-3-fluorophenyl)but-3-enyloxy]-3-(1-piperidin-4-yl-1H-pyrazol-4-yl)furo[3,2-c]pyridin-6-ylamine] |  | < 500
11 | C[C@@H](Oc1c(N)ncc2c(C3=CCN(S(N)(=O)=O)CC3)coc12)c1c(Cl)ccc(F)c1Cl [Example 141, 4-{6-Amino-7-[(1R)-1-(2,6-dichloro-3-fluorophenyl)ethoxy]furo[3,2-c]pyridin-3-yl}-3,6-dihydropyridine-1(2H)-sulfonamide] |  | 500 to 5000
12 | CNC(=O)N1CC=C(c2coc3c(O[C@H](C)c4c(Cl)ccc(F)c4Cl)c(N)ncc23)CC1 [Example 35, 4-{6-Amino-7-[(R)-1-(2,6-dichloro-3-fluorophenyl)-ethoxy]-furo[3,2-c]pyridin-3-yl}-3,6-dihydro-2H-pyridine-1-carboxylic acid methylamide] |  | 500 to 5000
13 | CC(Oc1c(N)ncc2c(-c3cnn(C4CCNCC4)c3)coc12)c1c(Cl)c(F)cc(F)c1Cl (stereo not drawn) [Example 154, 7-[1-(2,6-Dichloro-3,5-difluorophenyl)ethoxy]-3-[1-(piperidin-4-yl)-1H-pyrazol-4-yl]furo[3,2-c]pyridin-6-amine] |  | < 500
14 | C[C@@H](Oc1c(N)ncc2c(-c3ccccc3)coc12)c1c(Cl)ccc(F)c1Cl [Example 3, 7-[(R)-1-(2,6-dichloro-3-fluorophenyl)-ethoxy]-3-phenyl-furo[3,2-c]pyridin-6-ylamine] |  | 500 to 5000
15 | CC(Oc1c(N)ncc2c(-c3cnn(C4CCNCC4)c3)coc12)c1cc(F)ccc1Cl (stereo not drawn) [Example 336, 7-[1-(2-Chloro-5-fluorophenyl)ethoxy]-3-(1-piperidin-4-yl-1H-pyrazol-4-yl)-furo[3,2-c]pyridin-6-ylamine] |  | 500 to 5000
16 | CC(=O)N1CCC(n2cc(-c3coc4c(O[C@H](C)c5c(Cl)ccc(F)c5Cl)c(N)ncc34)cn2)CC1 [Example 276, 1-[4-(4-{6-Amino-7-[(1R)-1-(2,6-dichloro-3-fluorophenyl)ethoxy]furo[3,2-c]pyridin-3-yl}-1H-pyrazol-1-yl)piperidin-1-yl]ethanone] |  | 500 to 5000
17 | CC(Oc1c(N)ncc2c(-c3cnn(C4CCNCC4)c3)coc12)c1c(Cl)cc(Cl)cc1Cl (stereo not drawn) [Example 364, 3-(1-Piperidin-4-yl-1H-pyrazol-4-yl)-7-[1-(2,4,6-trichlorophenyl)-ethoxy]furo[3,2-c]pyridin-6-ylamine] |  | < 500
18 | CC(Oc1c(N)ncc2c(-c3cnn(C4CCNCC4)c3)coc12)c1c(Cl)ccc(Cl)c1Cl (stereo not drawn) [Example 349, 3-(1-Piperidin-4-yl-1H-pyrazol-4-yl)-7-[1-(2,3,6-trichlorophenyl)-ethoxy]furo[3,2-c]pyridin-6-ylamine] |  | < 500
19 | C[C@@H](Oc1c(N)ncc2c(C3=CCNCC3)coc12)c1c(Cl)ccc(F)c1Cl [Example 8, 7-[(R)-1-(2,6-Dichloro-3-fluorophenyl)ethoxy]-3-(1,2,3,6-tetrahydropyridin-4-yl)-furo[3,2-c]pyridin-6-ylamine] |  | 500 to 5000
20 | Nc1ncc2c(-c3cnn(C4CCNCC4)c3)coc2c1OCc1c(Cl)ccc(F)c1Cl [Example 339, 7-(2,6-Dichloro-3-fluorobenzyloxy)-3-(1-piperidin-4-yl-1H-pyrazol-4-yl)-furo[3,2-c]pyridin-6-ylamine] |  | 500 to 5000
21 | CC(=O)N1CC=C(c2coc3c(O[C@H](C)c4c(Cl)ccc(F)c4Cl)c(N)ncc23)CC1 [Example 12, 1-(4-{6-Amino-7-[(R)-1-(2,6-dichloro-3-fluorophenyl)-ethoxy]-furo[3,2-c]pyridin-3-yl}-3,6-dihydro-2H-pyridin-1-yl)-ethanone] |  | 500 to 5000
22 | C[C@@H](Oc1c(N)ncc2c(-c3cn[nH]c3)coc12)c1c(Cl)ccc(F)c1Cl [Example 6, 7-[(R)-1-(2,6-Dichloro-3-fluorophenyl)ethoxy]-3-(1H-pyrazol-4-yl)-furo[3,2-c]pyridin-6-ylamine] |  | 500 to 5000
23 | CCC(Oc1c(N)ncc2c(-c3cnn(C4CCNCC4)c3)coc12)c1c(Cl)ccc(F)c1Cl (stereo not drawn) [Example 350] |  | < 500
24 | C[C@@H](Oc1c(N)ncc2c(C3CCNCC3)coc12)c1c(Cl)ccc(F)c1Cl [Example 25, 7-[(R)-1-(2,6-Dichloro-3-fluorophenyl)-ethoxy]-3-piperidin-4-yl-furo[3,2-c]pyridin-6-ylamine] |  | 500 to 5000
25 | C[C@@H](Oc1c(N)ncc2c(-c3ccccn3)coc12)c1c(Cl)ccc(F)c1Cl [Example 137, 7-[(R)-1-(2,6-Dichloro-3-fluorophenyl)-ethoxy]-3-pyridin-2-ylfuro[3,2-c]pyridin-6-ylamine] |  | 500 to 5000
26 | CC(Oc1c(N)ncc2c(-c3cnn(C4CCNCC4)c3)coc12)c1cccc(F)c1Cl (stereo not drawn) [Example 351, 7-[1-(2-Chloro-3-fluorophenyl)ethoxy]-3-(1-piperidin-4-yl-1H-pyrazol-4-yl)-furo[3,2-c]pyridin-6-ylamine] |  | 500 to 5000
27 | CCCC(Oc1c(N)ncc2c(-c3cnn(C4CCNCC4)c3)coc12)c1c(Cl)ccc(F)c1Cl (stereo not drawn) [Example 357, 7-[1-(2,6-Dichloro-3-fluorophenyl)butoxy]-3-(1-piperidin-4-yl-1H-pyrazol-4-yl)furo[3,2-c]pyridin-6-ylamine] |  | < 500
28 | C[C@@H](Oc1c(N)ncc2c(-c3cccnc3)coc12)c1c(Cl)ccc(F)c1Cl [Example 126, 7-[(R)-(2,6-Dichloro-3-fluorophenyl)ethoxy]-3-pyridin-3-ylfuro[3,2-c]pyridin-6-ylamine] |  | 500 to 5000
29 | C[C@@H](Oc1c(N)ncc2c(-c3ccncc3)coc12)c1c(Cl)ccc(F)c1Cl [Example 127, 7-[(R)-(2,6-Dichloro-3-fluorophenyl)ethoxy]-3-pyridin-4-ylfuro[3,2-c]pyridin-6-ylamine] |  | 500 to 5000
30 | COC(=O)N1CC=C(c2coc3c(O[C@H](C)c4c(Cl)ccc(F)c4Cl)c(N)ncc23)CC1 [Example 50, 4-{6-Amino-7-[(R)-1-(2,6-dichloro-3-fluorophenyl)-ethoxy]-furo[3,2-c]pyridin-3-yl}-3,6-dihydro-2H-pyridine-1-carboxylic acid methyl ester] |  | 500 to 5000
